Assay results reported in patent US20120220563A1, “Substituted piperidines” (BAYER PHARMA AKTIENGESELLSCHAFT, priority 2009, published 2012).

Test system: platelet aggregation in platelet-rich plasma triggered by thrombin receptor agonist (TRAP6, SFLLRN)
Assay: Platelet aggregation in plasma (TRAP6/SFLLRN-triggered, turbidimetry according to Born)
Type: cell-based
Conditions: Homo sapiens, 10 min, platelet-rich plasma of healthy volunteers, 10 min at 37° C. with test substance, concentration which inhibits aggregation by 50%
Description: To determine the platelet aggregation, blood from healthy volunteers of both genders, who had not received any platelet aggregation-influencing medication for the last ten days, is used. The blood is taken up into monovettes (Sarstedt, Nümbrecht, Germany) which contain, as anticoagulant, sodium citrate 3.8% (1 part of citrate+9 parts of blood). To obtain platelet-rich plasma, the citrated whole blood is centrifuged at 140 g for 20 min
For the aggregation measurements, aliquots of the platelet-rich plasma with increasing concentrations of test substance are incubated at 37° C. for 10 min. Subsequently, aggregation is triggered by addition of a thrombin receptor agonist (TRAP6, SFLLRN) in an aggregometer and determined at 37° C. by means of the turbidimetry method according to Born (Born, G. V. R., Cross M. J., The Aggregation of Blood Platelets; J. Physiol. 1963, 168, 178-195). The SFLLRN concentration leading to maximum aggregation is, if appropriate, determined individually for each donor.
To calculate the inhibitory effect, the maximum increase of light transmission (amplitude of the aggregation curve in %) is determined within 5 minutes after addition of the agonist in the presence and absence of test substance, and the inhibition is calculated. The inhibition curves are used to calculate the concentration which inhibits aggregation by 50%.

In order of falling IC50:
1. CCN(CC)c1noc(C2CC(c3ccc(C(F)(F)F)cc3)CN(C(=O)N3CCOCC3)C2)n1 (single isomer, unassigned) [Example 6, {3-[3-(Diethylamino)-1,2,4-oxadiazol-5-yl]-5-[4-(trifluoromethyl)phenyl]piperidin-1-yl}-(morpholin-4-yl)methanone]  0.67 nM
2. CCOc1noc(C2CC(c3ccc(CC(F)(F)F)cc3)CN(C(=O)N3CC[S+]([O-])CC3)C2)n1 (single isomer, unassigned) [Example 66, {3-(3-Ethoxy-1,2,4-oxadiazol-5-yl)-5-[4-(2,2,2-trifluoroethyl)phenyl]piperidin-1-yl}(1-oxidothio-morpholin-4-yl)methanone]  0.54 nM
3. CCOc1noc(C2CC(c3ccc(CC)c(F)c3)CN(C(=O)N3CCS(=O)(=O)CC3)C2)n1 (racemic) [Example 101, (1,1-Dioxidothiomorpholin-4-yl)[3-(3-ethoxy-1,2,4-oxadiazol-5-yl)-5-(4-ethyl-3-fluorophenyl)-piperidin-1-yl]methanone]  0.3 nM
4. CCOc1noc(C2CC(c3ccc(CC(F)(F)F)cc3)CN(C(=O)N3CCS(=O)(=O)CC3)C2)n1 (single isomer, unassigned) [Example 69, (1,1-Dioxidothiomorpholin-4-yl) {3-(3-ethoxy-1,2,4-oxadiazol-5-yl)-5-[4-(2,2,2-trifluoroethyl)-phenyl]piperidin-1-yl}methanone]  0.25 nM
5. CCc1ccc(C2CC(c3nc(OCCOC)no3)CN(C(=O)N3CCS(=O)(=O)CC3)C2)cc1 (single isomer, unassigned) [Example 63, (1,1-Dioxidothiomorpholin-4-yl){3-(4-ethylphenyl)-5-[3-(2-methoxyethoxy)-1,2,4-oxadiazol-5-yl]-piperidin-1-yl}-methanone]  0.24 nM
